Experiments:
[1] = nach Ibuprofengaben; cited from earlier work
[2] = Ratten; cited from earlier work
[3] = Dissolution properties in water at 37° C (Tabelle I); type: physicochemical; conditions: Wasser
[4] = synoviale Flüssigkeit, Patienten mit Arthritis; cited from earlier work
[5] = In vitro diffusion study, concentration in the receptor cell, buffer pH 1,2, 37° C (Tabelle II); type: in vitro ADME; conditions: Pufferlösung pH = 1,2, 37° C
Text: Um die gute biologische Verfügbarkeit des S-(+)-Ibuprofens aus der komplexierten Form zu testen, wurden in vitro-Diffusionsversuche durchgeführt. Die Diffusion des S-(+)-Ibuprofens aus dem β-Cyclodextrin-Komplex war schneller, die S-(+)-Ibuprofen-Menge in der Rezeptorzelle betrug das 1,6fache bei pH = 1,2 nach 6 Stunden im Vergleich zum freien Arzneimittel (Tabelle II).

| Compound | aus dem Urin zurückgewonnen [1] | Absorptionsgrad [2] | gelöstes Ibuprofen ([3]; Zeit 1 min) | gelöstes Ibuprofen ([3]; Zeit 5 min) | gelöstes Ibuprofen ([3]; Zeit 10 min) | gelöstes Ibuprofen ([3]; Zeit 15 min) | gelöstes Ibuprofen ([3]; Zeit 30 min) | gelöstes Ibuprofen ([3]; Zeit 60 min) | Konzentrationsverhältnis S zu R [4] | Konzentration von S-(+)-Ibuprofen in der Rezeptorzelle ([5]; Zeit 90 min) | Konzentration von S-(+)-Ibuprofen in der Rezeptorzelle ([5]; Zeit 120 min) | Konzentration von S-(+)-Ibuprofen in der Rezeptorzelle ([5]; Zeit 180 min) | Konzentration von S-(+)-Ibuprofen in der Rezeptorzelle ([5]; Zeit 240 min) | Konzentration von S-(+)-Ibuprofen in der Rezeptorzelle ([5]; Zeit 360 min) |
| --- | --- | --- | --- | --- | --- | --- | --- | --- | --- | --- | --- | --- | --- | --- |
| CC(C)Cc1ccc(C(C)C(=O)O)cc1 (racemic) [Ibuprofen] | 5,0% | gleich | – | – | – | – | – | – | – | – | – | – | – | – |
| CC(C)Cc1ccc([C@H](C)C(=O)O)cc1 [S-(+)-Ibuprofen, S-(+)-2-(-4-Isobutylphenyl)propionsäure] | – | – | 0,04 mg/ml | 0,10 mg/ml | 0,12 mg/ml | 0,13 mg/ml | 0,12 mg/ml | 0,12 mg/ml | 2,1 | 0,022 mg/ml | 0,027 mg/ml | 0,038 mg/ml | 0,047 mg/ml | 0,061 mg/ml |

— EP0490193A1, “Complex of an actif enantiomer of ibuprofen with cyclodextrin” (priority 1990, dated 1992)
